The values below come from patent US10371707B1, “System and methods for bilirubin analysis” (Neolight LLC, priority 2017, dated 2019).

Structures are written as SMILES. Counter-ions that a name gives are not always drawn.

The target in one series is T1, albumin (Homo sapiens, UniProt P02768).
T1 construct: host or cells: human plasma
To be noted: within human plasma; cited from earlier work.

Series [1] is described as follows: Cyclic voltammetry, direct electro-oxidation on screen-printed carbon electrodes. To be noted: for anodic peak Epa: first/characteristic anodic peak, carbon electrodes, Ag/AgCl reference, scan rate 0.1 V/s, 0.05M Tris-HCl pH 8.5. The format is physicochemical. On the procedure:
(§1) All electrochemical experiments were performed on screen-printed carbon electrodes with an Ag/AgCl reference electrode in a 3-electrode mode of operation. Cyclic Voltammetry parameters were controlled via a computational program; scan rate: 0.1 V/s, start potential: −0.5V, switch potential: 0.9V, end potential: −0.5V.
(§2) Deionized water (resistivity 18.2MΩ cm) was used in the preparation of solutions. Bilirubin was dissolved in 0.05M sodium hydroxide to prepare 1 mM stock and gently vortexed till homogenously mixed. This stock solution was then diluted using 0.05 M Tris-HCl (pH 8.5) to the desired working concentration. […] Bromophenol blue was prepared in 0.05M Tris-HCl (pH 8.5). Conjugated bilirubin was dissolved in 0.05M Tris-HCl (pH 8.5) and mixed till homogenous. All tubes containing bilirubin were protected from light.
Regarding the detection of unbound unconjugated bilirubin, it was diluted to a physiologically relevant concentration (100 μM) and analyzed by cyclic voltammetry.

The target of the next series is T2, Human serum albumin (Homo sapiens, UniProt P02768).
T2 construct: purchased Sigma Aldrich, UK
T2 sequence (P02768 25-609): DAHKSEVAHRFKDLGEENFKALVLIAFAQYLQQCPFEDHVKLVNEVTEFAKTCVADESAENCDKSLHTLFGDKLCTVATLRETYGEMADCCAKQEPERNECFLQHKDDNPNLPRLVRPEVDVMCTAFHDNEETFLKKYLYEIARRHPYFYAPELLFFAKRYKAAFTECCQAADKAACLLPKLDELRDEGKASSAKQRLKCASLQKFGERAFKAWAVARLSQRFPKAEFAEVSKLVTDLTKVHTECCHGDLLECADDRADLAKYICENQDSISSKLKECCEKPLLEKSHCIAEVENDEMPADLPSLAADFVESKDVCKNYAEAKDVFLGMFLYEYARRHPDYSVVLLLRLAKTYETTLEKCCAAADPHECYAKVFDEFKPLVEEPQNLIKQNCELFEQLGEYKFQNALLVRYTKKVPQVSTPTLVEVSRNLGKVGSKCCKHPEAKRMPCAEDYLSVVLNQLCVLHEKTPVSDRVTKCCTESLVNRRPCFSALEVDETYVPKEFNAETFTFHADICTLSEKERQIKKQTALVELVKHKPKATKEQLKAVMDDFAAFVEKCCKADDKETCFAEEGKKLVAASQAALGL
Nature of the series: Binding to albumin and displacement of bilirubin by bromophenol blue, assessed by cyclic voltammetry. To be noted: for binding affinity to albumin (in words): inferred from voltammetric results; for effect of binding to albumin on electrochemical oxidation of the ligand: mixed with albumin, cyclic voltammetry; for peak current of liberated unconjugated bilirubin (peak at 0.15V): unconjugated bilirubin + albumin + bromophenol blue. As to the method:
as §1, §2
Surfactants, caffeine, sodium benzoate and fatty acids are common solubilizing agents.
As with unconjugated bilirubin, bromophenol blue was used a competitive binding ligand for the displacement of conjugated bilirubin.

T1 sequence (P02768 25-609): as above

`C=CC1=C(C)/C(=C/c2[nH]c(Cc3[nH]c(/C=C4\NC(=O)C(C)=C4C=C)c(C)c3CCC(=O)O)c(CCC(=O)O)c2C)NC1=O` [unconjugated bilirubin, Bilirubin (mixed isomers)]: the “unconjugated bilirubin bound to albumin” value on albumin is given as “roughly 99.9%”.

Regarding `O=S1(=O)OC(c2cc(Br)c(O)c(Br)c2)(c2cc(Br)c(O)c(Br)c2)c2ccccc21` [bromophenol blue, 4,4′-(1,1-dioxido-3H-2,1-benzoxathiole-3,3-diyl)bis(2,6-dibromophenol)], the “anodic peak Epa” value in series [1] came out at 0.64 V. The “displacement of conjugated bilirubin from albumin” value at Human serum albumin (conjugated bilirubin, albumin, bromophenol blue at 1:1:1 ratio) is given as “sufficiently displaced the conjugated bilirubin”. For the same compound, the “displacement of unconjugated bilirubin from albumin” value on Human serum albumin (equal concentration ratios of unconjugated bilirubin, albumin and bromophenol blue) is “no displacement of unconjugated bilirubin was observed”. Besides, on Human serum albumin, the “binding affinity to albumin (in words)” value was “higher binding affinity” and the “effect of binding to albumin on electrochemical oxidation of the ligand” value is “diminish the bromophenol blue peak at 0.64V”. At Human serum albumin (bromophenol blue concentration increased threefold), the “peak current of liberated unconjugated bilirubin (peak at 0.15V)” value is 0.347 μA. The “peak current of liberated unconjugated bilirubin (peak at 0.15V)” value at Human serum albumin (bromophenol blue concentration increased two-fold) is reported as 0.645 μA.

For the compound `C=CC1=C(C)/C(=C/c2[nH]c(Cc3[nH]c(/C=C4\NC(=O)C(C)=C4C=C)c(C)c3CCC(=O)NCCS(=O)(=O)O)c(CCC(=O)NCCS(=O)(=O)O)c2C)NC1=O` [conjugated bilirubin, Bilirubin conjugated ditaurate disodium salt], the third anodic peak in series [1] (cyclic voltammetry, same set-up) was determined as 0.44 V. For the same compound, the secondary anodic peak in series [1] (cyclic voltammetry, same set-up, for unconjugated bilirubin distinct at 50 μM and higher) is on record as 0.3 V. Moreover, in series [1], the “anodic peak Epa” value is reported as 0.15 V. On Human serum albumin, the “binding affinity to albumin (in words)” value is “weaker than that of unbound bilirubin” and the “effect of binding to albumin on electrochemical oxidation of the ligand” value is reported as “hinders oxidation of bilirubin”.
